Results taken from patent US11873290B2, “Pyridazinone compounds and uses thereof” (Edgewise Therapeutics, Inc., priority 2018, dated 2024).

These compounds were tested against skeletal myofibrils (myosin ATPase activity) (assay: Skeletal Myofibril ATPase Assay). Details: PK-LDH coupled, absorbance at 340 nm.
Format: biochemical
How it was run: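 Skeletal myofibril ATPase measured by PK-LDH-coupled NADH depletion at 340 nm, read every 1.5–2 min for 1 h; pCa buffer with PIPES/CaCl2/EGTA, pH 7.0. Rate taken as max–min absorbance, normalised to 1% DMSO vehicle (100%) and no change (0%); IC50 from four-parameter fit, bottom ≥0.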

Compound	IC50
O=c1ccc(-c2cnc(OCC(F)(F)F)nc2)nn1Cc1cnc(C(F)F)s1 [Compound 105]	< 10 µM
O=c1ccc(-c2cnc(OCC(F)F)nc2)nn1Cc1cncc(F)c1 [Compound 106, 6-(2-(2,2-difluoroethoxy)pyrimidin-5-yl)-2-((5-fluoropyridin-3-yl)methyl)pyridazine-3(2H)-one]	< 10 µM
O=c1ccc(-c2cnc(OCc3cncc(F)c3)nc2)nn1Cc1cncc(F)c1 [Compound 107, 6-(2-((5-fluoropyridin-3-yl)methoxy)pyrimidin-5-yl)-2-((5-fluoropyridin-3-yl)methyl)pyridazin-3(2H)-one]	> 100 µM
CSCOc1ncc(-c2ccc(=O)n(Cc3cncc(F)c3)n2)cn1 [Compound 108, 2-((5-fluoropyridin-3-yl)methyl)-6-(2-((methylthio)methoxy)pyrimidin-5-yl)pyridazine-3(2H)-one]	< 10 µM
CSCc1ncc(Cn2nc(-c3cnc(OCC(F)(F)F)nc3)ccc2=O)s1 [Compound 109, 2-((2-((methylthio)methyl)thiazol-5-yl)methyl)-6-(2-(2,2,2-trifluoroethoxy)pyrimidin-5-yl)pyridazine-3(2H)-one]	< 10 µM
CC(C)COc1ncc(-c2ccc(=O)n(Cc3cncc(F)c3)n2)cn1 [Compound 110, 2-((5-fluoropyridin-3-yl)methyl)-6-(2-isobutoxypyrimidin-5-yl)pyridazine-3(2H)-one]	< 10 µM
CSc1cncc(Cn2nc(-c3cnc(OCC(F)(F)F)nc3)ccc2=O)c1 [Compound 111]	< 10 µM
CCCOc1ncc(-c2ccc(=O)n(Cc3cnc(CC)s3)n2)cn1 [Compound 112, 2-((2-ethylthiazol-5-yl)methyl)-6-(2-propoxypyrimidin-5-yl)pyridazine-3(2H)-one]	< 10 µM
CC(F)(F)COc1ncc(-c2ccc(=O)n(Cc3cncc(F)c3)n2)cn1 [Compound 113, 6-(2-(2,2-difluoropropoxy)pyrimidin-5-yl)-2-((5-fluoropyridin-3-yl)methyl)pyridazine-3(2H)-one]	< 10 µM
CC(C)c1ncc(Cn2nc(-c3cnc(OCC(F)(F)F)nc3)ccc2=O)s1 [Compound 114, 2-((2-isopropylthiazol-5-yl)methyl)-6-(2-(2,2,2-trifluoroethoxy)pyrimidin-5-yl)pyridazine-3(2H)-one]	< 10 µM
CC(C)Oc1ncc(-c2ccc(=O)n(Cc3cncc(F)c3)n2)cn1 [Compound 115, 2-((5-f1uoropyridin-3-yl)methyl)-6-(2-isopropoxypyrimidin-5-yl)pyridazine-3(2H)-one]	< 10 µM
CCCc1ncc(Cn2nc(-c3cnc(OCC(F)(F)F)nc3)ccc2=O)s1 [Compound 116, 2-((2-propylthiazol-5-yl)methyl)-6-(2-(2,2,2-trifluoroethoxy)pyrimidin-5-yl)pyridazine-3(2H)-one]	< 10 µM
O=c1ccc(-c2cnc(OCCC(F)(F)F)nc2)nn1Cc1cncc(F)c1 [Compound 117, 2-((5-f1uoropyridin-3-yl)methyl)-6-(2-(3,3,3-trifluoropropoxy)pyrimidin-5-yl)pyridazine-3(2H)-one]	< 10 µM
O=c1ccc(-c2cnc(OCC(F)(F)F)nc2)nn1Cc1cncc(F)n1 [Compound 118, 2-((6-fluoropyrazin-yl)methyl)-6-(2-(2,2,2-trifluoroethoxy)pyrimidin-5-yl)pyridazin-3(2H)-one]	< 10 µM
O=c1ccc(-c2cnc(OCC3CC3)nc2)nn1Cc1cncc(F)c1 [Compound 119, 6-(2-(cyclopropylmethoxy)pyrimidin-5-yl)-2-((5-fluoropyridin-3-yl)methyl)pyridazine-3(2H)-one]	< 10 µM
CC[C@H](C)Oc1ncc(-c2ccc(=O)n(Cc3cncc(F)c3)n2)cn1 [Compound 120, (S)-6-(2-(sec-butoxy)pyrimidin-5-yl)-2((5-fluropyridin-3-yl)methyl)pyridazine-3(2H)-one]	< 10 µM
CCc1ncc(Cn2nc(-c3cnc(OCC(C)C)nc3)ccc2=O)s1 [Compound 124, 2-((2-ethylthiazol-5-yl)methyl)-6-(2-isobutoxypyrimidin-5-yl)pyridazine-3(2H)-one]	< 10 µM
Cc1ncc(Cn2nc(-c3cnc(OCC(C)C)nc3)ccc2=O)s1 [Compound 130, 6-(2-isobutoxypyrimidin-5-yl)-2-((2-methylthiazol-5-yl)methyl)pyridazine-3(2H)-one]	< 10 µM

Second part, the compound after the results:

IC50	Compound
< 10 µM	CC(C)(F)COc1ncc(-c2ccc(=O)n(Cc3cncc(F)c3)n2)cn1 [Compound 121, 6-(2-(2-fluoro-2-methylpropoxy)pyrimidin-5-yl)-2-((5-f1uoropyridin-3-yl)methyl)pyridazine-3(2H)-one]
< 10 µM	O=c1ccc(-c2cnc(OCC(F)(F)F)nc2)nn1Cc1cnc(C2CCC2)s1 [Compound 122, 2-((2-cyclobutylthiazol-5-yl)methyl)-6-(2-(2,2,2-trifluoroethoxy)pyrimidin-5-yl)pyridazine-3(2H)-one]
< 10 µM	CSC(C)COc1ncc(-c2ccc(=O)n(Cc3cncc(F)c3)n2)cn1 (centres unmarked) [Compound 123, 2((5-fluoropyridin-3-yl)methyl)-6-(2-(2-(methylthio)propoxy)pyrimidin-5-yl)pyridazine-3(2H)-one]
< 10 µM	COC(C)(C)COc1ncc(-c2ccc(=O)n(Cc3cncc(F)c3)n2)cn1 [Compound 125, 2-((5-fluoropyridin-3-yl)methyl)-6-(2-(2-methoxy-2-methylpropoxy)pyrimidin-5-yl)pyridazine-3(2H)-one]
< 10 µM	O=c1ccc(-c2cnc(OCC3CCC3)nc2)nn1Cc1cncc(F)c1 [Compound 126, 6-(2-(cyclobutylmethoxy)pyrimidin-5-yl)-2-((5-fluoropyridin-3-yl)methyl)pyridazine-3(2H)-one]
< 10 µM	CC[C@@H](C)Oc1ncc(-c2ccc(=O)n(Cc3cncc(F)c3)n2)cn1 [Compound 127]
< 10 µM	COc1cncc(Cn2nc(-c3cnc(OCC(F)(F)F)nc3)ccc2=O)c1 [Compound 128, 2-((5-methoxypyridin-3-yl)methyl)-6-(2-(2,2,2-trifluoroethoxy)pyrimidin-5-yl)pyridazine-3(2H)-one]
< 10 µM	CCc1ncc(Cn2nc(-c3cnc(OCC(C)(F)F)nc3)ccc2=O)s1 [Compound 129, 6-(2-(2,2-difluoropropoxy)pyrimidin-5-yl)-2((2-ethylthiazol-5-yl)methyl)pyridazine-3(2H)-one]
< 10 µM	[2H]C(C)(C)COc1ncc(-c2ccc(=O)n(Cc3cncc(F)c3)n2)cn1 [Compound 131, 2-((5-fluoropyridin-3-yl)methyl)-6-(2-(2-methylpropoxy-2-d)pyrimidin-5-yl)pyridazin-3(2H)-one]
< 10 µM	COc1ccc(Cn2nc(-c3cnc(OCC(F)(F)F)nc3)ccc2=O)cn1 [Compound 132, 2-((6-methoxypyridin-3-yl)methyl)-6-(2-(2,2,2-trifluoroethoxy)pyrimidin-5-yl)pyridazine-3(2H)-one]
< 10 µM	CCc1cncc(Cn2nc(-c3cnc(OCC(F)(F)F)nc3)ccc2=O)c1 [Compound 137, 2-((5-ethylpyridin-3-yl)methyl)-6-(2-(2,2,2-trifluoroethoxy)pyrimidin-5-yl)pyridazine-3(2H)-one]
< 10 µM	O=c1ccc(-c2cnc(OCc3ccccc3)nc2)nn1Cc1cncc(F)c1 [Compound 138]
< 10 µM	O=c1ccc(-c2ccc(OC(F)F)cc2)nn1Cc1nnc(-c2ccccc2)s1 [Compound 201, 6-(4-(difluoromethoxy)phenyl)-2-((5-phenyl-1,3,4-thiadiazol-2-yl)methyl)pyridazin-3(2H)-one]
< 10 µM	O=c1ccc(-c2ccc(OC(F)F)cc2)nn1Cc1nc(-c2ccccc2)no1 [Compound 202, 6-(4-(difluoromethoxy)phenyl)-2-((3-phenyl-1,2,4-oxadiazol-5-yl)methyl)pyridazine-3(2H)-one]
< 10 µM	O=c1ccc(-c2ccc(OC(F)F)cc2)nn1Cc1nc2ccccc2o1 [Compound 203, 2-(benzo[d]oxazol-2-ylmethyl)-6-(4-(difluoromethoxy)phenyl) pyridazine-3(2H)-one]
< 10 µM	Cc1cc(Cn2nc(-c3ccc(OC(F)F)cc3)ccc2=O)on1 [Compound 204, 6-(4-(difluoromethoxy)phenyl)-2-((3-methylisoxazol-5-yl)methyl)pyridazine-3(2H)-one]
< 10 µM	Cc1csc(Cn2nc(-c3ccc(OC(F)F)cc3)ccc2=O)n1 [Compound 205, 6-(4-(difluoromethoxy)phenyl)-2-((4-methylthiazol-2-yl)methyl) pyridazine-3(2H)-one]
< 10 µM	O=c1ccc(-c2ccc(OC(F)F)cc2)nn1Cc1cc(C2CC2)no1 [Compound 206, 2-((3-cyclopropylisoxazol-5-yl)methyl)-6-(4-(difluoromethoxy)phenyl) pyridazine-3(2H)-one]
< 10 µM	O=c1ccc(-c2ccc(OC(F)F)cc2)nn1Cc1nc(C2CC2)no1 [Compound 208, 2((3-cyclopropyl-1,2,4-oxadiazol-5-yl)methyl)-6-(4-(difluoromethoxy)phenyl) pyridazine-3(2H)-one]
< 10 µM	CCc1cc(Cn2nc(-c3ccc(OC(F)F)cc3)ccc2=O)on1 [Compound 209, 6-(4-(difluoromethoxy)phenyl)-2-((3-ethylisoxazol-5 - yl)methyl)pyridazin-3(2H)-one]
< 10 µM	O=c1ccc(-c2ccc(OC(F)F)cc2)nn1Cc1nc(C2CC2)cs1 [Compound 210, 2-((4-cyclopropylthiazol-2-yl)methyl)-6-(4-(difluoromethoxy)phenyl) pyridazine-3(2H)-one]
10 to 100 µM	O=c1ccc(-c2ccc(OC(F)F)cc2)nn1Cc1ccc(Cl)cn1 [Compound 211, 2-((5-chloropyridin-2-yl)methyl)-6-(4-(difluoromethoxy)phenyl)-pyridazin-3(2H)-one]
10 to 100 µM	O=c1ccc(-c2ccc(OC(F)F)cc2)nn1Cc1nnc(-c2ccccc2)o1 [Compound 212, 6-(4-(difluoromethoxy)phenyl)-2-((5-phenyl-1,3,4-oxadiazol-2-yl)methyl)pyridazin-3(2H)-one]
